This data set can be described thus: gradient 5% acetonitrile 3 min, to 50% in 2 min, to 85% in 15 min, held 3 min, 100 µL/min. The note with it: column: Zorbax Extend-C18 2.1 x 50 mm; eluents: water / acetonitrile, 0.1% formic acid. The essentials: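 Retention times of pure standards were taken from adduct peaks that were selected by computer and manually inspected. Over 3 months, mixtures of ~100 molecules were run by HPLC–quadrupole time-of-flight mass spectrometry in positive and negative ionization mode. The Zorbax Extend-C18 column (2.1 × 50 mm, 1.8 μm) ran at 100 μL/min in water and acetonitrile, each containing 0.1% formic acid, with 40 μL dead volume and 900 μL dwell volume.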
Regarding `Cc1cc(C)c(NC(=O)C2CCN(c3c(C(=O)N4CCOCC4)cnc4snc(C)c34)CC2)c(C)c1`, the RP-LC retention time was 826 s.

The compound `Cc1nc(N)n(CC(=O)NCc2ccccc2)c(=O)c1C` showed an RP-LC retention time of 611 s.

`COc1ccc(C(=O)N2CCCn3cc(-c4ccccc4)nc32)cn1` registered an RP-LC retention time of 532 s.

For the compound `Cc1ccc(CNC(=O)C2CCN(C(=O)N3CCOc4ccc(Cl)cc43)CC2)cc1`, the RP-LC retention time was found to be 919 s.

As to `Cc1nn(CCC(=O)Nc2ccc(F)cc2F)c(=O)c2nn(-c3ccccc3)c(C)c12`, the RP-LC retention time stood at 795 s.

Regarding `O=S(=O)(c1ccc(-c2noc(-c3ccccc3Cl)n2)cc1)N1CCOCC1`, the RP-LC retention time was determined as 1100 s.

Regarding `Cc1cccc(NC(=O)NC2CCN(C(=O)N3C[C@@H]4C[C@H](C3)[C@H]3CCCC(=O)N3C4)CC2)c1`, the RP-LC retention time was determined as 669 s.

With `CCCn1cc(CCNC(=O)c2ccc(Cl)s2)c2cccnc21`, the RP-LC retention time was determined as 833 s.

With `COc1ccc2c(c1)CCc1sc(NC(=O)c3ccc(OC)c(Br)c3)nc1-2`, the RP-LC retention time amounted to 1210 s.

With `Cn1c(NC(=O)c2cccc([N+](=O)[O-])c2)c(-c2cccs2)c(=O)c2ccccc21`, the RP-LC retention time is 701 s.

In turn, `CCCCn1cc(S(=O)(=O)Nc2ccc(F)cc2Cl)c2cccnc21` registered an RP-LC retention time of 862 s.

As for `COC(=O)Cn1nc2ccc(S(=O)(=O)N3CCSCC3)cn2c1=O`, the RP-LC retention time was 711 s.

Compound `CC(C)(C)NC(=O)N1[C@H]2CC[C@@H]1c1cnc(-c3ccccc3)nc1C2` registered an RP-LC retention time of 865 s.

The compound `COc1ccc2c(c1)C1(CCN(C(=O)c3ccccc3Cl)C1)C(=O)N2` (centres undefined) came in with an RP-LC retention time of 708 s.

Consider `Cc1cnc(C2CC2)n1CCNC(=O)C1CC(=O)N(C2CCCCC2)C1` (centres undefined), for which the RP-LC retention time stood at 594 s.

For the compound `Cc1nc(CCNC(=O)Cc2ccsc2)no1`, the RP-LC retention time was 640 s.

`Cc1ccc(Nc2c(-c3cccc(Br)c3)nc3ccc(C)cn23)cc1` gave an RP-LC retention time of 830 s.

With `Cc1ccc(NC(=O)C(=O)c2ccc[nH]2)c(Br)c1`, the RP-LC retention time was 1060 s.

Take `COc1ccc(C2CCN(C(=O)c3ccoc3)CC2)cc1`: the RP-LC retention time came out at 853 s.

With `O=C(Nc1ccccc1C(F)(F)F)N1CC(n2cnnc2-c2ccccc2)C1`, the RP-LC retention time was determined as 710 s.

The compound `O=C(NCC1CCCO1)c1nc(-c2ccnc(N3CCCC3)c2)no1` (centres undefined) registered an RP-LC retention time of 597 s.

As for `CC1CCCN(CCCNC(=O)C2CCCN(c3ncnc4c3nc3n4CCCCC3)C2)C1` (centres undefined), the RP-LC retention time was 585 s.

Consider `CC(C)n1c(=O)c2ccccc2n(Cc2nc(-c3ccc(Br)cc3)no2)c1=O`, for which the RP-LC retention time is 1230 s.

The compound `CCc1nc(-c2csc(S(=O)(=O)N3CCCC(C(=O)Nc4ccc(C)cc4)C3)c2)no1` (centres undefined) registered an RP-LC retention time of 901 s.

For the compound `CCOC(=O)c1[nH]c(C)c(CCC(=O)N2CCC(C(=O)NCc3ccc(OC(C)C)cc3)CC2)c1C`, the RP-LC retention time amounted to 850 s.

As to `CCCn1nc2n(c1=O)CCN(Cc1cn[nH]c1-c1ccc(OCC)c(Cl)c1)C2`, the RP-LC retention time is 708 s.

`CC(=O)Nc1ccc(-c2cc(C(=O)N3CCN(c4ccccn4)CC3)c3ccccc3n2)cc1` came in with an RP-LC retention time of 609 s.

For the compound `Cc1ccccc1-c1noc(CSc2nc3cc4c(cc3c(=O)n2CC2CCCO2)OCO4)n1` (centres undefined), the RP-LC retention time amounted to 1170 s.

In turn, `CC1Oc2ccc(S(=O)(=O)N3CCC(C(=O)Nc4ccccc4F)CC3)cc2NC1=O` (centres undefined) gave an RP-LC retention time of 761 s.

In the case of `COc1ccc(-c2noc(CCC(=O)O)n2)cc1`, the RP-LC retention time turned out to be 693 s.

Compound `CN1C(=O)c2cccn2CC1CNC(=O)c1nccn1C` (centres undefined) gave an RP-LC retention time of 573 s.

For `COc1ccc(Cl)cc1S(=O)(=O)N1CCC(n2cnnc2C)CC1`, the RP-LC retention time was determined as 684 s.

Regarding `CCOc1cc2c(cc1OCC)C1C(C(=O)NCc3ccc(C)o3)c3ccccc3C(=O)N1CC2` (centres undefined), the RP-LC retention time is 894 s.

The compound `CCC(=O)N1CCc2cc(N3CC(C(=O)N4CCC(C)CC4)CC3=O)ccc21` (centres undefined) had an RP-LC retention time of 726 s.

`CCCn1cc(C2=CCN(C(=O)NCc3ccc(OC)cc3)CC2)c2cccnc21` returned an RP-LC retention time of 888 s.

As to `Cc1ccc(NC(=O)C2CCCN2S(=O)(=O)c2cc3c(cc2C)NC(=O)C(C)O3)c(Cl)c1` (centres undefined), the RP-LC retention time turned out to be 914 s.

Regarding `O=C(NCCc1ccco1)C1CCCN(c2ccc(=O)n(-c3ccc(F)cc3)n2)C1` (centres undefined), the RP-LC retention time was found to be 773 s.

In the case of `O=C(CSc1nnc2sc3ccccc3n12)c1ccc(F)cc1`, the RP-LC retention time was determined as 778 s.

For `COc1ncc(C(=O)Nc2cc(C)cc(C)c2)c(C)n1`, the RP-LC retention time was 817 s.

On to `COc1ccc(OC)c(NC(=O)c2cc(NC(=O)C(C)C)cc3nc(C)ccc23)c1`, for which the RP-LC retention time turned out to be 663 s.

For `COc1ccccc1-n1c(SCC(=O)Nc2ncn[nH]2)nc2ccccc2c1=O`, the RP-LC retention time was 642 s.

For `Cc1cnc(C(=O)N2CCCCCC2c2nnc(C)o2)cn1` (centres undefined), the RP-LC retention time was 649 s.

With `Cc1cccc(N(C)C(=O)Cn2cnc3nc4c(cc3c2=O)CCCC4)c1`, the RP-LC retention time turned out to be 705 s.

In the case of `CCc1noc(C2(NC(=O)c3nccc4ccccc34)CCCCC2)n1`, the RP-LC retention time came out at 1060 s.

In the case of `CCc1ccccc1S(=O)(=O)NCc1c(-c2ccccc2)nc2sc(C)nn12`, the RP-LC retention time stood at 940 s.

For `CCc1ccccc1NC(=O)C(C)n1cnc2nc(N3CCCCC3)ncc2c1=O` (centres undefined), the RP-LC retention time worked out at 882 s.

Compound `CS(=O)(=O)N1CCC(OC2CCN(C(=O)Cc3c[nH]c4ccccc34)CC2)CC1` returned an RP-LC retention time of 688 s.

Compound `O=C(CSc1ccc(N2CCCC(C(=O)NC3CC3)C2)nn1)Nc1cccc(Cl)c1` (centres undefined) gave an RP-LC retention time of 689 s.

`CC(=O)N(Cc1nn(C)c2c1CN(Cc1ccc(OCC(N)=O)cc1)CC2)c1ccccc1` returned an RP-LC retention time of 585 s.

Compound `Cc1ccc(N2CCN(C(=O)C3CCCN(c4cnc5nccnc5c4)C3)CC2)cc1` (centres undefined) had an RP-LC retention time of 754 s.

Compound `c1ccc(CNc2cc(-n3ccnc3)ncn2)cc1` displayed an RP-LC retention time of 610 s.

As to `COc1ccc(N2CCN(c3cc(SCC(=O)Nc4cccc(C#N)c4)ncn3)CC2)cc1`, the RP-LC retention time worked out at 895 s.

As to `CCC1CCCCN1C(=O)c1cnc2nc(C)ccc2c1Nc1ccc2c(c1)OCO2` (centres undefined), the RP-LC retention time was 623 s.

Regarding `O=C(c1ccno1)N1CCC(c2nnc(-c3ccco3)s2)CC1`, the RP-LC retention time was 644 s.

In the case of `O=c1n(Cc2cccc(Br)c2)nc2c(S(=O)(=O)N3CCc4ccccc4C3)cccn12`, the RP-LC retention time amounted to 1030 s.

For `CC(C)=CCN1CCC2(CCc3ccccc32)CC1`, the RP-LC retention time stood at 775 s.

As to `Cc1ccccc1-c1nnc(COc2ccc(NC(=O)C3CCC3)cc2)o1`, the RP-LC retention time was 885 s.

In turn, `O=C(Cn1ncn2nc(-c3ccccc3)cc2c1=O)NCCCN1CCCC1` registered an RP-LC retention time of 602 s.

In turn, `CCCNC(=O)C1CCN(S(=O)(=O)c2cc(C(=O)N3CCCCCC3)cs2)CC1` registered an RP-LC retention time of 783 s.

For the compound `Cc1ccc(C(=O)NC2(c3nc(C)no3)CCCCC2)cc1`, the RP-LC retention time is 886 s.

Take `O=C(NC1CCCN(c2cc(-c3ccncc3)[nH]n2)C1)c1cccc(F)c1` (centres undefined): the RP-LC retention time worked out at 593 s.

In the case of `Cc1ccc(NC(=O)Cn2nc3nc(N4CCCC(C)C4)ccn3c2=O)cc1C` (centres undefined), the RP-LC retention time was found to be 826 s.

The compound `Cc1cccc(NC(=O)C2CCN(S(=O)(=O)c3ccc4c(c3)sc(=O)n4C)CC2)c1C` returned an RP-LC retention time of 830 s.

`Cc1ccc(NC(=O)C2CCCN2S(=O)(=O)c2cc3c(cc2C)NC(=O)CO3)cc1Cl` (centres undefined) came in with an RP-LC retention time of 791 s.

`Cc1c(C(=O)NC2CCCCCC2)sc2ncn(CC(=O)N3CC(C)CC(C)C3)c(=O)c12` (centres undefined) gave an RP-LC retention time of 1070 s.

Compound `Cc1cc(S(=O)(=O)NCC(c2cccs2)S(=O)(=O)c2ccccc2)ccc1F` (centres undefined) registered an RP-LC retention time of 906 s.

`CCC(C)N1CC(=O)N(c2ccc(OC)c(Cl)c2)[C@@H]2CS(=O)(=O)C[C@@H]21` (some centres undefined) gave an RP-LC retention time of 786 s.

Turning to `CCn1ccc2cc(S(=O)(=O)N3CCCC(C(=O)NCCc4ccco4)C3)ccc21` (centres undefined), the RP-LC retention time turned out to be 925 s.

In turn, `Cc1cc(-c2nnc(-c3ccccc3)o2)c(C)n1CC(=O)Nc1ccccc1` returned an RP-LC retention time of 931 s.

`O=C(NCc1cc(F)ccc1F)C1CCc2nc(N3CCOCC3)ncc2C1` (centres undefined): the RP-LC retention time worked out at 715 s.

As for `CCOC(=O)c1ccc(NC(=O)CSc2ccc3nnc(-c4ccccn4)n3n2)cc1`, the RP-LC retention time was found to be 656 s.

In the case of `COc1ccc(N2CCN(CCNC(=O)C3CCCN(c4cc(=O)n(C)c(=O)n4C)C3)CC2)cc1` (centres undefined), the RP-LC retention time was 583 s.

`COc1cccc(CN2CCC3(CC2)NCCc2c3[nH]c3ccccc23)c1` had an RP-LC retention time of 583 s.

The compound `COc1ccc(CCNC(=O)Cn2ccc3ccc(-c4nnc(C)o4)cc32)cc1OC` came in with an RP-LC retention time of 715 s.

In turn, `O=C(Nc1cccc(Br)c1)C1CC(=O)N(CCc2c[nH]c3ccc(F)cc23)C1` (centres undefined) showed an RP-LC retention time of 890 s.

`Cc1ccc(CN2CCN(C3CCN(C(=O)Nc4ccccc4C(F)(F)F)CC3)C(=O)C2=O)cc1`: the RP-LC retention time was found to be 810 s.

`CCc1nnc2ccc(-c3noc(COc4ccc(Cl)cc4)n3)cn12` gave an RP-LC retention time of 770 s.

Compound `Cc1ccc(C(=O)Nc2ccc(N3CCN(c4ccccc4)C3=O)nc2)s1` came in with an RP-LC retention time of 893 s.

The compound `CCOC(=O)c1cccc(Nc2c(-c3ccc(N(C)C)cc3)nc3cnccn23)c1` came in with an RP-LC retention time of 837 s.
